Earlier results in PMC9318694 (Molecules, 2022).
pKi: −log10 of the molar value. Structures can show the parent of a compound that is named as a salt. Where two headings read alike, the source gives them in different places.

Biological target: D2R (Homo sapiens, UniProt P14416)
Conditions: cited from earlier work
[1] = Table S1, data set of actives, radio-ligand binding assays, ref ChEMBL, [50]-[70], read-out: KI
[2] = Table S2, data set of inactives, radio-ligand binding (RLB) assays, ref ChEMBL, [71]-[92], read-out: KI

D2R, sequence (P14416 whole entry): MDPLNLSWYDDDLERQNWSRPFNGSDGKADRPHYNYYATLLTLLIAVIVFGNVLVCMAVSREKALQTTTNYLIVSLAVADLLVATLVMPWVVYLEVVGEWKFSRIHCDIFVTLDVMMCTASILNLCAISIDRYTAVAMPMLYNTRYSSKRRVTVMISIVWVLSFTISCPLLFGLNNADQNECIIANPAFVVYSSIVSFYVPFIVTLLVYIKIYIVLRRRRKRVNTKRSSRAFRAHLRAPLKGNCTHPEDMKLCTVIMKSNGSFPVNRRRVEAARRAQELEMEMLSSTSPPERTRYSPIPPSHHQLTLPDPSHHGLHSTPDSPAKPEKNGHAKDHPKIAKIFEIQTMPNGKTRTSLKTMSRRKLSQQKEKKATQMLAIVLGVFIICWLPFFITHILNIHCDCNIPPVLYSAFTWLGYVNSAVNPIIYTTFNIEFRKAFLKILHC

Row | Compound | pKi [2] | further results
1 | CN[C@@H]1Cc2cccc3c2n(c(=O)n3CCOCCOCCOCCOc2ccc3c(c2)NC(=O)CC3)C1 [SC48, (R)-5-(methylamino)-1-(2-(2-(2-(2-((2-oxo-1,2,3,4-tetrahydroquinolin-7-yl)oxy)ethoxy)ethoxy)ethoxy)ethyl)-5,6-dihydro-4H-imidazo[4,5,1-ij]quinolin-2(1H)-one] | – | pKi [1]: 6.51
2 | CN(CCCCOc1ccc2c(c1)NC(=O)CC2)[C@@H]1Cc2cccc3[nH]c(=O)n(c23)C1 [SC49, (R)-5-(methyl(4-((2-oxo-1,2,3,4-tetrahydroquinolin-7-yl)oxy)butyl)amino)-5,6-dihydro-4H-imidazo[4,5,1-ij]quinolin-2(1H)-one] | – | pKi [1]: 7.40
3 | CN[C@@H]1Cc2cccc3c2n(c(=O)n3CCOCCOCCCCc2ccccc2)C1 [SC50, (R)-5-(methylamino)-1-(2-(2-(4-phenylbutoxy)ethoxy)ethyl)-5,6-dihydro-4H-imidazo[4,5,1-ij]quinolin-2(1H)-one] | – | pKi [1]: 6.95
4 | CN[C@@H]1Cc2cccc3c2n(c(=O)n3CCCCCCCCCCCCOc2ccc3c(c2)NC(=O)CC3)C1 [SC51, (R)-5-(methylamino)-1-(12-((2-oxo-1,2,3,4-tetrahydroquinolin-7-yl)oxy)dodecyl)-5,6-dihydro-4H-imidazo[4,5,1-ij]quinolin-2(1H)-one] | – | pKi [1]: 6.55
5 | O=C1CCc2ccc(OCCCCN3CCCN(c4ccc(O)c5[nH]c(=O)ccc45)CC3)cc2N1 [SC52, 8-hydroxy-5-(4-(4-((2-oxo-1,2,3,4-tetrahydroquinolin-7-yl)oxy)butyl)-1,4-diazepan-1-yl)quinolin-2(1H)-one] | – | pKi [1]: 8.80; pKi (active data set, ref ChEMBL, read-out: KI / binding affinity): > 8.70
6 | CCCN(CCN1CCN(c2ccc(-c3ccccc3)cc2)CC1)[C@H]1CCc2nc(N)sc2C1 [SC53, (S)-N6-(2-(4-([1,1'-biphenyl]-4-yl)piperazin-1-yl)ethyl)-N6-propyl-4,5,6,7-tetrahydrobenzo[d]thiazole-2,6-diamine] | – | pKi [1]: 6.58
7 | CCCN(CCN1CCN(c2cccc3ncccc23)CC1)[C@H]1CCc2nc(N)sc2C1 [SC55, (S)-N6-propyl-N6-(2-(4-(quinolin-5-yl)piperazin-1-yl)ethyl)-4,5,6,7-tetrahydrobenzo[d]thiazole-2,6-diamine] | – | pKi [1]: 7.24
8 | CCCN(CCN1CCN(c2nccc3ccccc23)CC1)[C@H]1CCc2nc(N)sc2C1 [SC56, (S)-N6-(2-(4-(isoquinolin-1-yl)piperazin-1-yl)ethyl)-N6-propyl-4,5,6,7-tetrahydrobenzo[d]thiazole-2,6-diamine] | – | pKi [1]: 6.57
9 | CCCN(CCN1CCN(c2ccnc3ccccc23)CC1)[C@H]1CCc2nc(N)sc2C1 [SC57, (S)-N6-propyl-N6-(2-(4-(quinolin-4-yl)piperazin-1-yl)ethyl)-4,5,6,7-tetrahydrobenzo[d]thiazole-2,6-diamine] | – | pKi (read-out: KI): 6.96
10 | Clc1ccc(N2CCN(CCCCNc3noc(-c4ccccc4)n3)CC2)cc1 [SC62, N-[4-[4-(4-chlorophenyl)piperazin-1-yl]butyl]-5-phenyl-1,2,4-oxadiazol-3-amine;hydrochloride] | 4.10 | –
11 | COc1cc2c(cc1OC)CN(C=Nc1ccc3c(c1)C1SCCSC1C3)CC2 (stereo not drawn) [SC63, N-(3,4a,9,9a-tetrahydro-2H-indeno[1,2-b][1,4]dithiin-6-yl)-1-(6,7-dimethoxy-3,4-dihydro-1H-isoquinolin-2-yl)methanimine] | < 4.00 | –
12 | COc1cc2c(cc1OC)CN(C=Nc1ccc3c(c1)C1SCCSC1CC3)CC2 (stereo not drawn) [SC64, N-(2,3,4a,5,6,10b-hexahydrobenzo[f][1,4]benzodithiin-9-yl)-1-(6,7-dimethoxy-3,4-dihydro-1H-isoquinolin-2-yl)methanimine] | < 3.52 | –
13 | COc1ccc2[nH]c3c(c2c1)CCN=C3c1cc([N+](=O)[O-])cn1C [SC65, 6-methoxy-1-(1-methyl-4-nitropyrrol-2-yl)-4,9-dihydro-3H-pyrido[3,4-b]indole] | 3.70 | –
14 | COc1cc2c(cc1OC)CN(C=Nc1ccc3c(c1)C1SCCSC1CC3)CC2 (stereo not drawn) [SC66, N-(2,3,4a,5,6,10b-hexahydrobenzo[f][1,4]benzodithiin-9-yl)-1-(6,7-dimethoxy-3,4-dihydro-1H-isoquinolin-2-yl)methanimine] | < 4.00 | –
15 | COc1cc2c(cc1OC)CN(C=Nc1ccc3c(c1)C(O)CC3)CC2 (stereo not drawn) [SC67, 6-[(6,7-dimethoxy-3,4-dihydro-1H-isoquinolin-2-yl)methylideneamino]-2,3-dihydro-1H-inden-1-ol] | < 3.52 | –
16 | OCc1cccn2ncc(CN3CCN(c4ccc(Cl)cc4)CC3)c12 [SC70, [3-[[4-(4-chlorophenyl)piperazin-1-yl]methyl]pyrazolo[1,5-a]pyridin-4-yl]methanol] | 4.10 | –
17 | N#CC(C#N)=Cc1ccc(CN2CCN(c3ccccc3)CC2)[nH]1 [SC71, 2-[[5-[(4-phenylpiperazin-1-yl)methyl]-1H-pyrrol-2-yl]methylidene]propanedinitrile] | < 4.00 | –
18 | NC(=O)C[S@@+]([O-])C(c1ccccc1)c1ccccc1 [SC72, 2-[(R)-benzhydrylsulfinyl]acetamide] | – | pKi: < 4.00
19 | CCCNC1CCn2ncc(C(=O)OC)c2C1 (stereo not drawn) [SC94, methyl 5-(propylamino)-4,5,6,7-tetrahydropyrazolo[1,5-a]pyridine-3-carboxylate] | < 4.00 | –
20 | Fc1ccc(N2CCN(Cc3cn4ccncc4n3)CC2)cc1 [SC95, 2-[[4-(4-fluorophenyl)piperazin-1-yl]methyl]imidazo[1,2-a]pyrazine] | 4.17 | –
21 | Cc1ccc(CNCC2(F)CCN(C(=O)c3cc(Br)cs3)CC2)nc1 [SC96, (4-bromothiophen-2-yl)-[4-fluoro-4-[[(5-methylpyridin-2-yl)methylamino]methyl]piperidin-1-yl]methanone] | 4.00 | –

Row | Compound | pKi [2] | further results
22 | CCCN(CCC)[C@@H]1CCn2nccc2C1 [SC97, (5R)-N,N-dipropyl-4,5,6,7-tetrahydropyrazolo[1,5-a]pyridin-5-amine] | 4.26 | –
23 | FCCOc1ccc(N2CCN(Cc3cnn4ccccc34)CC2)cc1 [SC98, 3-[[4-[4-(2-fluoroethoxy)phenyl]piperazin-1-yl]methyl]pyrazolo[1,5-a]pyridine] | 4.10 | –
24 | CCCNCCCCNC(=O)c1ccc(-c2ccccc2)cc1 [SC99, 4-phenyl-N-[4-(propylamino)butyl]benzamide] | < 4.00 | –
25 | COc1cccc(CCc2ccccc2OCCCCN2CCN(c3ccc(F)cc3)CC2)c1 [SC100, 1-(4-fluorophenyl)-4-[4-[2-[2-(3-methoxyphenyl)ethyl]phenoxy]butyl]piperazine] | 2.88 | –
26 | COc1cccc(CCc2ccccc2OCCN2CCN(c3ncccn3)CC2)c1 [SC101, 2-[4-[2-[2-[2-(3-methoxyphenyl)ethyl]phenoxy]ethyl]piperazin-1-yl]pyrimidine] | 3.20 | –
27 | COc1cccc(CCc2ccccc2OCCCCN2CCN(c3cccc(Cl)c3)CC2)c1 [SC102, 1-(3-chlorophenyl)-4-[4-[2-[2-(3-methoxyphenyl)ethyl]phenoxy]butyl]piperazine] | < 3.00 | –
28 | COc1cccc(CCc2ccccc2OCCCCCN2CCN(c3cccc(Cl)c3)CC2)c1 [SC103, 1-(3-chlorophenyl)-4-[5-[2-[2-(3-methoxyphenyl)ethyl]phenoxy]pentyl]piperazine] | < 3.00 | –
29 | COc1cccc(CCc2ccccc2OCCN2CCN(c3cccc(C(F)(F)F)c3)CC2)c1 [SC104, 1-[2-[2-[2-(3-methoxyphenyl)ethyl]phenoxy]ethyl]-4-[3-(trifluoromethyl)phenyl]piperazine] | < 3.00 | –
30 | COc1cccc(CCc2ccccc2OCCCN2CCN(c3cccc(C(F)(F)F)c3)CC2)c1 [SC105, 1-[3-[2-[2-(3-methoxyphenyl)ethyl]phenoxy]propyl]-4-[3-(trifluoromethyl)phenyl]piperazine] | 2.85 | –
31 | COc1cccc(CCc2ccccc2OCCCN2CCN(c3ccc(F)cc3)CC2)c1 [SC106, 1-(4-fluorophenyl)-4-[3-[2-[2-(3-methoxyphenyl)ethyl]phenoxy]propyl]piperazine] | 3.18 | –
32 | COc1cccc(CCc2ccccc2OCCCN2CCN(c3cccc(Cl)c3)CC2)c1 [SC107, 1-(3-chlorophenyl)-4-[3-[2-[2-(3-methoxyphenyl)ethyl]phenoxy]propyl]piperazine] | 3.53 | –
33 | COc1cccc(CCc2ccccc2OCCCCCN2CCN(c3ccccc3OC)CC2)c1 [SC108, 1-(2-methoxyphenyl)-4-[5-[2-[2-(3-methoxyphenyl)ethyl]phenoxy]pentyl]piperazine] | < 3.00 | –
34 | COc1cccc(CCc2ccccc2OCCN2CCN(c3ccc(F)cc3)CC2)c1 [SC109, 1-(4-fluorophenyl)-4-[2-[2-[2-(3-methoxyphenyl)ethyl]phenoxy]ethyl]piperazine] | < 3.00 | –
35 | COc1cccc(CCc2ccccc2OCCCCN2CCN(c3cccc(C(F)(F)F)c3)CC2)c1 [SC110, 1-[4-[2-[2-(3-methoxyphenyl)ethyl]phenoxy]butyl]-4-[3-(trifluoromethyl)phenyl]piperazine] | < 3.00 | –
36 | COc1cccc(CCc2ccccc2OCCCCCN2CCN(C)CC2)c1 [SC111, 1-[5-[2-[2-(3-methoxyphenyl)ethyl]phenoxy]pentyl]-4-methylpiperazine] | < 3.00 | –
37 | COc1cccc(CCc2ccccc2OCCCCN2CCc3cc(OC)c(OC)cc3C2)c1 [SC112, 6,7-dimethoxy-2-[4-[2-[2-(3-methoxyphenyl)ethyl]phenoxy]butyl]-3,4-dihydro-1H-isoquinoline] | < 3.00 | –
38 | COc1cccc(CCc2ccccc2OCCCCN2CCc3ccccc3C2)c1 [SC113, 2-[4-[2-[2-(3-methoxyphenyl)ethyl]phenoxy]butyl]-3,4-dihydro-1H-isoquinoline] | < 3.00 | –
39 | COc1cccc(CCc2ccccc2OCCN2CCc3cc(OC)c(OC)cc3C2)c1 [SC114, 6,7-dimethoxy-2-[2-[2-[2-(3-methoxyphenyl)ethyl]phenoxy]ethyl]-3,4-dihydro-1H-isoquinoline] | < 3.00 | –
40 | COc1cccc(CCc2ccccc2OCCCN2CCc3cc(OC)c(OC)cc3C2)c1 [SC115, 6,7-dimethoxy-2-[3-[2-[2-(3-methoxyphenyl)ethyl]phenoxy]propyl]-3,4-dihydro-1H-isoquinoline] | – | pKi (read-out: KI): < 3.00
41 | COc1cccc(CCc2ccccc2OCCCCN2CCN(C)CC2)c1 [SC116, 1-[4-[2-[2-(3-methoxyphenyl)ethyl]phenoxy]butyl]-4-methylpiperazine] | < 3.00 | –
